Experiment [1] deals with T1, human estrogen receptor (Homo sapiens, UniProt P03372).
T1 construct: expressed in transfected cells
The experiment is described as follows: 2X VIT ERE infection luciferase assay in CHO cells stably transfected with the human estrogen receptor. It counts as cell-based. Particulars: for Infection Luciferase Activity, 1 uM + 17β estradiol: 1 uM compound + 1 nM 17β-estradiol, 24 h (tests for estrogen antagonism), percentage of activity as compared to 17β-estradiol; for Infection Luciferase Activity, 1 uM: 1 uM compound alone, 24 h, percentage of activity as compared to 17β-estradiol (agonism). How it is done:
Chinese Hamster Ovary cells (CHO) which had been stably transfected with the human estrogen receptor were maintained in DMEM + 10% fetal bovine serum (FBS). 48h prior to treatment the growth medium was replaced with DMEM lacking phenol red + 10% dextran coated charcoal stripped FBS (treatment medium). Cells were plated at a density of 5000 cells/well in 96-well plates containing 200 µL of medium/well.
Reporter DNA (Promega plasmid pGL2 containing two tandem copies of the vitellogenin ERE in front of the minimal thymidine kinase promoter driving the luciferase gene) was combined with the B-galactosidase expression plasmid pCH110 (Pharmacia) and carrier DNA (pTZ18U) in the following ratio: • 10uG of reporter DNA • 5uG of pCH110DNA • 5 uG of pTZ18U • 20 uG of DNA/1 mL of transfection solution
The DNA (20uG) was dissolved in 500 uL of 250 mM sterile CaCl2 and added dropwise to 500 uL of 2 X HeBS (0.28 M NaCl, 50 mM HEPES, 1.5 mM Na2HPO4, pH 7.05) and incubated at room temperature for 20 minutes. 20 uL of this mixture was added to each well of cells and remained on the cells for 16 h. […] Each treatment condition was performed on 8 wells (n=8) which were incubated for 24 h prior to the luciferase assay.
After 24h exposure to compounds, the media was removed and each well washed 2X with 125 uL of PBS lacking Mg^++ and Ca^++. After removing the PBS, 25 uL of Promega lysis buffer was added to each well and allowed to stand at room temperature for 15 min, followed by 15 min at -80°C and 15 min at 37°C. 20 uL of lysate was transferred to an opaque 96 well plate for luciferase activity evaluation and the remaining lysate (5 uL) was used for the B-galactosidase activity evaluation (normalize transfection). The luciferan substrate (Promega) was added in 100 uL aliquots to each well automatically by the luminometer and the light produced (relative light units) was read 10 seconds after addition.
To the remaining 5 uL of lysate 45 uL of PBS was added. Then 50 uL of Promega B-galactosidase 2X assay buffer was added, mixed well and incubated at 37°C for 1 hour. A plate containing a standard curve (0.1 to 1.5 milliunits in triplicate) was set up for each experimental run. The plates were analyzed on a Molecular Devices spectrophotometric plate reader at 410 nm. The optical densities for the unknown were converted to milliunits of activity by mathematical extrapolation from the standard curve.
The luciferase data was generated as relative light units (RLUs) accumulated during a 10 second measurement and automatically transferred to a JMP (SAS Inc) file where background RLUs were subtracted. The B-galactosidase values were automatically imported into the file and these values were divided into the RLUs to normalize the data. The mean and standard deviations were determined from a n=8 for each treatment.

In experiment [2] the target is T2, estrogen receptor (Homo sapiens, UniProt P03372).
T2 construct: expressed in transfected cells; host or cells: CHO cells (ribosome-free cytosol)
T2 sequence (P03372 1-595): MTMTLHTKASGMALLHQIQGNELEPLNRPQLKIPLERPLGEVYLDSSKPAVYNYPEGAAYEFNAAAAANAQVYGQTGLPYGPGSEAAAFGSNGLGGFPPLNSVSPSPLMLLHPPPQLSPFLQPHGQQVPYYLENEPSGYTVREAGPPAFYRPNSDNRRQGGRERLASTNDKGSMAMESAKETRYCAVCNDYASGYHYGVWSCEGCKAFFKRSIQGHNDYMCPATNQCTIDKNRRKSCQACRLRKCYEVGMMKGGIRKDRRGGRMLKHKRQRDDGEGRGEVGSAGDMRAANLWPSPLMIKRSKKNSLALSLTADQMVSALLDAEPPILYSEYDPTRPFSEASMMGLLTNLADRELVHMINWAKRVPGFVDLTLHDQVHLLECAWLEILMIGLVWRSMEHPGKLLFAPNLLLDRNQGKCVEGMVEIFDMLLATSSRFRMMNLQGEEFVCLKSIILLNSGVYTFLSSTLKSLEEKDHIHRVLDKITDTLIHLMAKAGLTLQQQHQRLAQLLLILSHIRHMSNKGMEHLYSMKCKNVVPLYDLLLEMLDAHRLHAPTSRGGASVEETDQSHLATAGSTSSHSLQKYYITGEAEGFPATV
Kind of experiment: In vitro estrogen receptor binding assay (competition with [3H]-17β-estradiol, cytosol of CHO cells overexpressing the receptor). Conditions: for binding to the ER receptor, comparison in words: compared with the indenoindole Example 4, from Table 2; for IC50: read-out: Receptor Binding IC50's. On the procedure: The plates were washed twice with PBS and once with 10 mM Tris-HCl, pH 7.4, 1 mM EDTA. Cells were harvested by scraping the surface and then the cell suspension was placed on ice. Cells were disrupted with a hand-held motorized tissue grinder using two, 10-second bursts. The crude preparation was centrifuged at 12,000g for 20 minutes followed by a 60 minute spin at 100,000g to produce a ribosome free cytosol. The cytosol was then frozen and stored at -80°C. Protein concentration of the cytosol was estimated using the BCA assay with reference standard protein. […] The plate was incubated at room temperature for 2.5 h. At the end of this incubation period 150 uL of ice-cold dextran coated charcoal (5% activated charcoal coated with 0.05% […] dextran) was added to each well and the plate was immediately centrifuged at 99g for 5 minutes at 4°C. 200 uL of the supernatant solution was then removed for scintillation counting. […] Also, wells containing radioactivity but no cytosol were processed with charcoal to estimate unremovable DPM of [^3H] 17β-estradiol. Counts per minute (CPM) of radioactivity were automatically converted to disintegrated per minute (DPM) by the Beckman LS 7500 Scintillation Counter using a set of quenched standards to generate a H# for each sample. […]

For `COc1ccc2c(c1)CCc1c-2n(Cc2ccc(OCCN3CCCCC3)cc2)c2ccc(O)cc12` [Example 13, 3-Methoxy-11-[4-(2-piperidin-1-yl-ethoxy)-benzyl]-5,11-dihydro-6H-benzo[a]carbazol-8-ol], in experiment [1], the “Infection Luciferase Activity, 1 uM + 17β estradiol” value turned out to be 1% and the “Infection Luciferase Activity, 1 uM” value is reported as -7%. In experiment [2], the “binding to the ER receptor, comparison in words” value was “bind better to the ER receptor than the indenoindole Example 4” and the IC50 came to 110 nM.

As for `COc1ccc2c(c1)Cc1c-2n(Cc2ccc(OCCN3CCCCC3)cc2)c2ccc(O)cc12` [Example 4, 2-Methoxy-5-[4-(2-piperidin-1-yl-ethoxy)-benzyl]-5,10-dihydro-indeno[1,2-b]indol-8ol], in experiment [1], the “Infection Luciferase Activity, 1 uM + 17β estradiol” value was found to be 83% and the “Infection Luciferase Activity, 1 uM” value is reported as -2%. The IC50 in experiment [2] turned out to be 430 nM.

Take `COc1ccc2c(c1)CCc1c-2n(Cc2ccc(OCCN3CCCCCC3)cc2)c2ccc(O)cc12` [Example 14]: in experiment [1], the “Infection Luciferase Activity, 1 uM + 17β estradiol” value stood at 8% and the “Infection Luciferase Activity, 1 uM” value came out at 1%. Further, in experiment [2], the “binding to the ER receptor, comparison in words” value was “bind better to the ER receptor than the indenoindole Example 4” and the IC50 turned out to be 190 nM.

These data come from patent EP1082319B1, “BENZOCARBAZOLE AND INDENOINDOLE DERIVED ESTROGENIC AGENTS” (Wyeth, priority 1998, dated 1999).
